Reference: US8258154B2, “Bicyclic heteroaryl inhibitors of PDE4” (Kalypsys Inc., priority 2006, dated 2012)

Tested on: Lacrimal gland inflammation-induced dry eye
Assay: Lacrimal gland inflammation-induced dry eye in rabbits (corneal staining, tear breakup time)
Format: in vivo
Conditions: rabbit, topical ocular BID, percent concentration 1
Text: A more detailed description of the assay used herein may be found in Naglehout, T J et al. 2005, “Preservation of Tear Film Integrity and Inhibition of Corneal Injury by Dexamethasone in a Rabbit Model of Lacrimal Gland Inflammation-Induced Dry Eye,” J. Ocular Pharm. Ther., 21:2. 139-148, the disclosure of which is hereby incorporated by reference as if written herein in its entirety. Rabbits (n=4/group) were randomized into treatment groups and dosed topically BID with maxidex vehicle or test drug beginning one day prior to initiation of dry eye. Each rabbit received bilateral lacrimal gland injections of saline or ConA (300 μg/30 μl) and topical ocular dosing was continued BID throughout the study. Desiccation was initiated 1-2 hours following lacrimal gland injection by placing conscious rabbits in the environmental chamber (10-15% humidity/72° F.). […] Absorbance of the extracted dye was determined at 660 nm. TBUT was quantified in a separate group of treated animals. TBUT was determined by instilling 5 μL sodium fluorescein into the cul de sac and manually blinking the lids to distribute the fluorescein within the tear film. Under slit lamp observation, the eye was held open and the time whereby one or more black spots or streaks appeared in the precorneal tear film was recorded. […]

With COc1ccc2c(Nc3c(Cl)cncc3Cl)cc(=O)[nH]c2c1OC1CCCC1 [Example 1, 8-(Cyclopentyloxy)-4-(3,5-dichloropyridin-4-ylamino)-7-methoxyquinolin-2(1H)-one] the “Activity at Percent Concentration Tested 1” value was “Inac-”.
